In patent US11691974B2, “3,9-diazaspiro[5,5]undecane compound as FLT3 and AXL inhibitors” (MEDSHINE DISCOVERY INC., priority 2018, dated 2023):

Legend:
[1] = In vivo pharmacokinetic study in rats; settings: male, SD, rat, plasma
Method: SD male rats aged 7 to 10 weeks were selected. The doses for intravenous and oral administration were 1 mg/kg and 2.5 mg/kg, respectively. The rats were fasted for at least 12 hours before the administration, and resumed feeding 4 hours after the administration. The rats had free access to water throughout the assay period.
On the day of the assay, the animals in the intravenous group were administrated the corresponding compound through a single injection in the tail vein at an administration volume of 5 mL/kg; the oral group were administrated the corresponding compound through a single intragastric gavage at an administration volume of 10 mL/kg. The animals were weighed before administration, and the administration volume was calculated based on the body weight. The time for collecting samples was: 0.083 (the injection group), 0.25, 0.5, 1, 2, 4, 6, 8, 24 h. About 200 μL of whole blood was collected from the jugular vein at each time point to prepare plasma for concentration determination by high-performance liquid chromatography-tandem mass spectrometry (LC-MS/MS). All animals were euthanized by CO2 anesthesia after collecting the PK samples at the last time point. The plasma concentrations were processed by non-compartmental model of WinNonlin™ Version 6.3 (Pharsight, Mountain View, Calif.) pharmacokinetic software, and the pharmacokinetic parameters were calculated by the linear logarithm trapezoidal method.

[2] = target: T1, FLT3(K663Q) (Homo sapiens, UniProt P36888, K663Q); assay: KINOMEscan Kd determination, FLT3 mutant; format: binding; settings: ratio of Kd versus compound B
T1 sequence (P36888 27-993 K663Q): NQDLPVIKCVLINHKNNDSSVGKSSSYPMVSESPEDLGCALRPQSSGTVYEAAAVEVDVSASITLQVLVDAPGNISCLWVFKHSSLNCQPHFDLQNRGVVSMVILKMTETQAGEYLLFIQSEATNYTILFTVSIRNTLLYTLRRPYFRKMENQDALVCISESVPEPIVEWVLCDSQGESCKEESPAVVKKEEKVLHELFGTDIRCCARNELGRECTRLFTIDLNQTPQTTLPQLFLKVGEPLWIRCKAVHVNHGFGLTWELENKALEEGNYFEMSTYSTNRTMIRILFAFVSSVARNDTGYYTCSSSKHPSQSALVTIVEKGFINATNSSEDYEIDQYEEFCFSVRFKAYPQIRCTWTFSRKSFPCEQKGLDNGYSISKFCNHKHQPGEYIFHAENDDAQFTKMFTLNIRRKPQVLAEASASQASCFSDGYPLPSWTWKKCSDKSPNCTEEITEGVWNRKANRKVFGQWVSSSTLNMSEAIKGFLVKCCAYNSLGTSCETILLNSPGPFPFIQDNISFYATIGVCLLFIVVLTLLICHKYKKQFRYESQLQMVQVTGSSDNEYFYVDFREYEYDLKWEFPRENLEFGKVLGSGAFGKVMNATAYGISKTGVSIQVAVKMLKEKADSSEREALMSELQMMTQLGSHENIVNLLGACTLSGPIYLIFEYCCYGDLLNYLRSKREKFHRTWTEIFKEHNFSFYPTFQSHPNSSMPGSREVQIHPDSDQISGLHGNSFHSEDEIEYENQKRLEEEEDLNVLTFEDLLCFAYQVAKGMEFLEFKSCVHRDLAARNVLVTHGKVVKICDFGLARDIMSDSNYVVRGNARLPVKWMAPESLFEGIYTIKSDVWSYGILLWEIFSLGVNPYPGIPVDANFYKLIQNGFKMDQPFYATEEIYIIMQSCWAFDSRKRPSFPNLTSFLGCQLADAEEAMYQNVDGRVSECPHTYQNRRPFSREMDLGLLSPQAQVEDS
Method: The assay was carried out using KINOMEscan™ technology. The assay compounds were stored in 100% DMSO. The assay was carried out by means of 3-fold dilution and 11-point fitting. All compounds used for Kd determination were dispersed by ultrasound, then directly diluted and tested. All reactions were carried out in a 384-well polypropylene plate. Each portion has a final volume of 0.02 ml. The plate was incubated with shaking at room temperature for 1 hour, and then processed. The kinase concentration in the eluent was finally determined by qPCR method. Kd was obtained by fitting.

AUC(0-t) ([1]; iv, injection 1 mg/kg): 0.457 µM·h
clearance ([1]; iv, injection 1 mg/kg): 61.2 mL/min/kg
half-life ([1]; iv, injection 1 mg/kg): 2.99 h
Vd ([1]; iv, injection 1 mg/kg, read-out: Vdss): 13.3 L/kg
AUC(0-t) ([1]; oral administration 2.5 mg/kg): 0.51 µM·h
bioavailability ([1]; oral administration 2.5 mg/kg): 44.7%
activity for FLT3 (K663Q) higher than that of compound B [2]: 5.9 times
Structure (SMILES): CCc1nc(C(N)=O)c(Nc2ccc(N3CCC4(CCN(C)CC4)CC3)c(C)c2)nc1NC1CCOCC1
